These results are taken from patent US5968958A, “5-Methanesulfonamido-3H-isobenzofuran-1-ones as inhibitors of cyclooxygenase-2” (Merck Frosst Canada, Inc., priority 1997, dated 1999).

The subject of one assay is Rat Paw edema. In words: Rat Paw Edema Assay (carrageenan). It counts as in vivo, rat (male Sprague-Dawley). The settings on record: po, 1 hr before subplantar carrageenan (500 μg per paw), paw volume increase at 3 h. The procedure: Rat Paw Edema Assay--Protocol
Male Sprague-Dawley rats (150-200 g) are fasted overnight and are given po either vehicle (1% methocell or 5% Tween 80) or a test compound. One hr later, a line is drawn using a permanent marker at the level above the ankle in one hind paw to define the area of the paw to be monitored. The paw volume (V0) is measured using a plethysmometer (Ugo-Basile, Italy) based on the principle of water displacement. The animals are then injected subplantarly with 50 μl of 1% carrageenan solution in saline (FMC Corp, Maine) into the paw using an insulin syringe with a 25-gauge needle (i.e., 500 μg carrageenan per paw). Three h later, the paw volume (V3) is measured and the increases in paw volume (V3 -V0) are calculated. The animals are sacrificed by CO2 asphyxiation and the absence or presence of stomach lesions scored. Data is compared with the vehicle-control values and percent inhibition calculated. All treatment groups are coded to eliminate observer bias.

Another assay addresses T1, cyclooxygenase-1 (Homo sapiens, UniProt P23219).
T1 construct: human U-937 cells (which specifically express cyclooxygenase-1); endogenous in cells; host or cells: human U-937 cells
In words: Whole cell cyclooxygenase assay, PGE2 synthesis in human U-937 cells (COX-1). The conditions noted are these: inhibition of PGE2 production, arachidonic acid, radioimmunoassay. It is filed as cell-based. Here is the method: (§1) Inhibition of Cyclooxygenase Activity
(§2) Compounds are tested as inhibitors of cyclooxygenase activity in whole cell cyclooxygenase assays. Both of these assays measure prostaglandin E2 synthesis in response to arachidonic acid, using a radioimmunoassay. Cells used for these assays are human osteosarcoma 143 cells (which specifically express cyclooxygenase-2) and human U-937 cells (which specifically express cyclooxygenase-1). In these assays, 100% activity is defined as the difference between prostaglandin E2 synthesis in the absence and presence of arachidonate.
(§3) In the assay, inhibition is determined by measuring the amount of prostaglandin E2 (PGE2) synthesized in the presence of arachidonic acid, cyclooxygenase-1 or cyclooxygenase-2 and a putative inhibitor. The IC50 values represent the concentration of putative inhibitor required to return PGE2 synthesis to 50% of that obtained as compared to the uninhibited control.

The target in the next assay is T2, cyclooxygenase-2 (Homo sapiens, UniProt P35354).
T2 construct: human osteosarcoma 143 cells (which specifically express cyclooxygenase-2); endogenous in cells; host or cells: human osteosarcoma 143 cells
T2 sequence (P35354 18-604): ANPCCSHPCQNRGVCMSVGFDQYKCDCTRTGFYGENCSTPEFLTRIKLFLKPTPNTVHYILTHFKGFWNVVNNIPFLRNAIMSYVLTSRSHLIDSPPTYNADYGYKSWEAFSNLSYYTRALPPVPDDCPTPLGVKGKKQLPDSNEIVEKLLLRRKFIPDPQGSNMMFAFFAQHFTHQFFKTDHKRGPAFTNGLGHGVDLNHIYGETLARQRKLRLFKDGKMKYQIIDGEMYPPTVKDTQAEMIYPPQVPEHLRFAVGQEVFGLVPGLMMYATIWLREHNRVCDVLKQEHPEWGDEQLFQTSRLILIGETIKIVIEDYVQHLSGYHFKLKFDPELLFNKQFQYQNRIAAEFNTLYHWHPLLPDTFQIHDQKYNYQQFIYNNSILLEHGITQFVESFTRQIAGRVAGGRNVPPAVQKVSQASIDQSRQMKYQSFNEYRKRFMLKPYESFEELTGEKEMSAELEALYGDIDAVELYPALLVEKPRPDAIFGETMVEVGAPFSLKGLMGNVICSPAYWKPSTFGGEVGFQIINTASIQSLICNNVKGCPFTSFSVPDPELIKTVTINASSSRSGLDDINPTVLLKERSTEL
In words: Whole cell cyclooxygenase assay, PGE2 synthesis in human osteosarcoma 143 cells (COX-2). It counts as cell-based. Here is the method: as §1, §2, §3

The mark [1] stands for this setting: inhibition of PGE2 production, human osteosarcoma 143 cells, arachidonic acid, radioimmunoassay, read-out: Osteosarcoma cells (COX-2) IC50.

Read-outs that look alike come from different tables or passages of the source.

T1 sequence (P23219 24-599): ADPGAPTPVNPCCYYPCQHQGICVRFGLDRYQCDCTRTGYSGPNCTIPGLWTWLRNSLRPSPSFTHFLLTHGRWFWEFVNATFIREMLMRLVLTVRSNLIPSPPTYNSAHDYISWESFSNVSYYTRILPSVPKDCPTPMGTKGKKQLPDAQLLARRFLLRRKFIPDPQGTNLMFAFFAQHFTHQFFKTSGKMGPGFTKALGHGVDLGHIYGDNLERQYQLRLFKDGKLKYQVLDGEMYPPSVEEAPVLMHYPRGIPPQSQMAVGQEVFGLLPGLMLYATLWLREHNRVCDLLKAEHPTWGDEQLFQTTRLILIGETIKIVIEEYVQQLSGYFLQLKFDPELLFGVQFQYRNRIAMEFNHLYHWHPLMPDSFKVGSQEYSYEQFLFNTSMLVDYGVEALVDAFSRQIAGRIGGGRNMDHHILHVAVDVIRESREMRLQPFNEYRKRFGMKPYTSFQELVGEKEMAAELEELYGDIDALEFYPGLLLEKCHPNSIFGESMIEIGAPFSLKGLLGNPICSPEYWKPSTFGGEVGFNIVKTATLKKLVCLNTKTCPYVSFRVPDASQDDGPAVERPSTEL

With `CCc1csc(Sc2cc3c(cc2NS(C)(=O)=O)COC3=O)n1` [Example 1, 6-(4-Ethyl-2-thiazolythio)-5-methanesulfonamido-3H-isobenzofuran-1-one], the ED30 with Rat Paw edema was 0.16 mg/kg. Also, the results for the IC50 at cyclooxygenase-1 and on cyclooxygenase-2 were more than 100000 nM and 6 nM, respectively.
`CS(=O)(=O)Nc1cc2c(cc1Sc1ccc(Cl)cn1)C(=O)OC2` [Example 2, 6-(5-Chloro-2-pyridylthio)-5-methanesulfonamido-3H-isobenzofuran-1-one] displayed an ED30 in the assay with Rat Paw edema of 1.3 mg/kg. Moreover, the IC50 (as a rule, the midpoint of a concentration-inhibition curve) against cyclooxygenase-1 is more than 100000 nM; on cyclooxygenase-2 (setting [1]), 33 nM.
In the case of `CS(=O)(=O)Nc1cc2c(cc1Sc1nccs1)C(=O)OC2` [Example 3, 6-(2-Thiazolythio)-5-methanesulfonamido-3H-isobenzofuran-1-one], the IC50 against cyclooxygenase-1 is more than 100000 nM; on cyclooxygenase-2 (setting [1]) it was 140 nM.
For `Cc1csc(Sc2cc3c(cc2NS(C)(=O)=O)COC3=O)n1` [Example 4, 5-Methanesulfonamido-6-(4-methyl-2-thiazolythio)-3H-isobenzofuran-1-one], the ED30 with Rat Paw edema was 1 mg/kg. The IC50 against cyclooxygenase-1 is more than 100000 nM; at cyclooxygenase-2 (setting [1]), 36.7 nM.
